Measured values as given in patent US12344618B2, “Heterotricyclic derivative compound and use of same” (HANMI PHARMACEUTICAL CO., LTD., priority 2019, dated 2025).
Like-named read-outs stand apart in the source and are kept apart here.

Experiments:
[1] = target: T1, EZH1 (Homo sapiens, UniProt Q92800); assay: Inhibitory activity against EZH1 methyltransferase (radiometric scintillation proximity assay); format: biochemical; details: 2.3 nmol/L enzyme, 90 minutes, room temperature;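 also: Read-out is methylation of a substrate peptide, captured on streptavidin-coated SPA beads and counted by scintillation, in Tris-HCl buffer at pH 8.0 with 1% DMSO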
T1 construct: purchased Reaction Biology Corp. (contract assay)
T1 sequence (Q92800 whole entry): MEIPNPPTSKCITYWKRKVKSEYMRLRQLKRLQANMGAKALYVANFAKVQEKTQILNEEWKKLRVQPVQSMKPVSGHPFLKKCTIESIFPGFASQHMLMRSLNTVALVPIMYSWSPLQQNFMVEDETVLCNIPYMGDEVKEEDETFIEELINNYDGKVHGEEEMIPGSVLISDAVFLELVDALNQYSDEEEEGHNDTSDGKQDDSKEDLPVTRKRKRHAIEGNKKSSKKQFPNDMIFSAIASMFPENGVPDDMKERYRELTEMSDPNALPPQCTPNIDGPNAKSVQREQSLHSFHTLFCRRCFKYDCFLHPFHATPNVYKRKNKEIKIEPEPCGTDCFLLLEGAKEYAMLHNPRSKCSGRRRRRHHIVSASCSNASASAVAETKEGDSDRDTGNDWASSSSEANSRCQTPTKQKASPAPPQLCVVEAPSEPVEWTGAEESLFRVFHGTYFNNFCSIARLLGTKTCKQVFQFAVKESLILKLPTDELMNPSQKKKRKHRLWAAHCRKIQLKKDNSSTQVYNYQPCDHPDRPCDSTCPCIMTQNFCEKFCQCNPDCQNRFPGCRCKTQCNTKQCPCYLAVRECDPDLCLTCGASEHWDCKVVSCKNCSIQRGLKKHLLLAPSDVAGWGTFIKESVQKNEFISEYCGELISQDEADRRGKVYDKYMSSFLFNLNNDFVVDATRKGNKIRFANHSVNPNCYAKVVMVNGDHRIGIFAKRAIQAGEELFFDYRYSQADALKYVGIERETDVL
T1 sequence (O75530 whole entry partner): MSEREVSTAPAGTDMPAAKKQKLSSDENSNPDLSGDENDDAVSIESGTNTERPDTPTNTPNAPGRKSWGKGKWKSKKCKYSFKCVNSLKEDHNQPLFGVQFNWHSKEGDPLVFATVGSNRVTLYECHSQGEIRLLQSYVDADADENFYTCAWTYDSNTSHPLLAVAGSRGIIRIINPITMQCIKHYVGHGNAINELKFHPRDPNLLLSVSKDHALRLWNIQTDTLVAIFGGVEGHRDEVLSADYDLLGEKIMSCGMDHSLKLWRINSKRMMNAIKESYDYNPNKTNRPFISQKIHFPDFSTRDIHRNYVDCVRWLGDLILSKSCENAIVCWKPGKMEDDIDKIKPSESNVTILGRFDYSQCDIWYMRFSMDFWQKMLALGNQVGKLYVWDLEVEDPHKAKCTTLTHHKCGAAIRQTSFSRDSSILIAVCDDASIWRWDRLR
T1 sequence (Q15022 whole entry partner): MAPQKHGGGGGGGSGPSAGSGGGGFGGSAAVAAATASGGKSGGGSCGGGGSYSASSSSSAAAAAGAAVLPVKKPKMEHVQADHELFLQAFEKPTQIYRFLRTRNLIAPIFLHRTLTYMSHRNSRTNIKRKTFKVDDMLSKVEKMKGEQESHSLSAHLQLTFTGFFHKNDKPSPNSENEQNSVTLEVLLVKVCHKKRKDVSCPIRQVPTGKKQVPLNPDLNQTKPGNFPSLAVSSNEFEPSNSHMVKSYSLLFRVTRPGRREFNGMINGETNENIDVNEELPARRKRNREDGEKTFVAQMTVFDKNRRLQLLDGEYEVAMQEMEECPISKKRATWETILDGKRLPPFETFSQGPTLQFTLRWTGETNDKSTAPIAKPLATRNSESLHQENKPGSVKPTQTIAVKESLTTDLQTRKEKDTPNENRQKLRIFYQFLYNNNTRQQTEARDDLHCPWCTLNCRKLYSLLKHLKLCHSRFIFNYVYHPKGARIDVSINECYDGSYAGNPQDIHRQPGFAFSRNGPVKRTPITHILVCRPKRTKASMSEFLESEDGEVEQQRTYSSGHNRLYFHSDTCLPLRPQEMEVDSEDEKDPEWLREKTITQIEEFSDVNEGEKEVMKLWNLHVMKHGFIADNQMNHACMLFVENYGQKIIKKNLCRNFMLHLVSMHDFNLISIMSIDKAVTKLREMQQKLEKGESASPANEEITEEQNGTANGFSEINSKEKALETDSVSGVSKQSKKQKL
T1 sequence (Q09028 whole entry partner): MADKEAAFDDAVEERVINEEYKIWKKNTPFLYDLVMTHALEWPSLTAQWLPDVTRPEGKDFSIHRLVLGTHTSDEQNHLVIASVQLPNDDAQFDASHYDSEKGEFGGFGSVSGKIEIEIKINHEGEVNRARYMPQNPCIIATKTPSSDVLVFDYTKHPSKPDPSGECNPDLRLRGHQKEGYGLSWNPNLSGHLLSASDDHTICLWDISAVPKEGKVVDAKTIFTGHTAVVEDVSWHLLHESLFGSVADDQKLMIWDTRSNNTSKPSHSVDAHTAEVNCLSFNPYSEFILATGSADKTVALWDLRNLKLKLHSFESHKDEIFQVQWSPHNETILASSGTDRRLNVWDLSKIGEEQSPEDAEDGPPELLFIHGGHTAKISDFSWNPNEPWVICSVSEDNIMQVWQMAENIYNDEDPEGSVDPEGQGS
T1 sequence (Q6ZN18 whole entry partner): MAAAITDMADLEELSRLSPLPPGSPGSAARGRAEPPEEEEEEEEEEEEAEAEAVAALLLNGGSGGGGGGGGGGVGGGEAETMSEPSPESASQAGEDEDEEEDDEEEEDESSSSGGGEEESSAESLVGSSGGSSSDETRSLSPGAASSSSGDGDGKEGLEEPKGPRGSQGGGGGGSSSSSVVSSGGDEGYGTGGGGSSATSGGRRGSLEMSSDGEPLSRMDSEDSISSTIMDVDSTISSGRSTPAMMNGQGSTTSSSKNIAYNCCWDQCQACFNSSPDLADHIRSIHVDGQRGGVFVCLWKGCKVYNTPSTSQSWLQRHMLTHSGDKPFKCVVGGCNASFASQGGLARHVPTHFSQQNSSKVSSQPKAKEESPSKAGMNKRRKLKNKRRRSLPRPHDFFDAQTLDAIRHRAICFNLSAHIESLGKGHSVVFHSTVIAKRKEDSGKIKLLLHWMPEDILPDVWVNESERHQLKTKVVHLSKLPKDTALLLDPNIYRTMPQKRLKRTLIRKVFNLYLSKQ
Description: The inhibitory activities of the synthetic compounds against EZH1 or EZH2 methyltransferase were measured. The experiment was conducted by Reaction Biology Corp., and the activity of EZH1 or EZH2 was measured using a radiometric scintillation proximity assay. […] The reaction buffer consisted of 50 mmol/L Tris-HCl (pH 8.0), 50 mmol/L NaCl, 1 mmol/L EDTA, 1 mmoL/L DTT, 1 mmol/L PMSF, and 1% DMSO. Trichloroacetic acid was added to terminate the reaction, and PVT streptavidin-coated SPA beads were added to each reaction solution, followed by further reaction at room temperature for 1 hour again. The methylation value of the substrate peptide was measured using the TopCount NXT plate reader.

[2] = system: KARPAS-422 (EZH2 Y641N mutation); assay: Cell growth inhibition test, KARPAS-422; format: cell-based; details: KARPAS-422, culture time 7 days, read-out: Cell growth inhibitory activity (GI50, nM) KARPAS-422 (EZH2 Y641N mutation)
Description: Each type of the cultured cells was seeded in 6-well plates or 48-96 well plates, and subculture or medium replacement was performed every 3 to 4 days. Next, the cells were subcultured for a total of 7 to 14 days, and then seeded in 96-well plates. 3 to 5 days before the measurement of the effect, the cells were seeded in 96-well plates, and then the absorbance (Tz) on the day of seeding was measured. The absorbance after the reaction was measured by the plate reader device Synergy NeoAlpha (Biotek) using Cell-Titer-Glo Cell Viability Assay (Promega, G7573) according to the attached manual. Based on the absorbance (Tz) measured on the seeding day and the absorbance of each of the DMSO-treated group (C) and the sample-added group (Ti) measured on the day of effect determination, the percentage of cell proliferation inhibition was calculated according to the following Equation 1. [(Ti−Tz)/(C−Tz)]×100 for concentrations for which Ti≥Tz […] for concentrations for which Ti<Tz. [Equation 1]

[3] = Metabolic stability in human liver microsomes; format: in vitro ADME; details: 5 μM compound, 1 mg/mL human liver microsomes, 37° C., NADPH regenerating system
Description: (§1) In order to confirm the metabolic stability of the synthetic compounds in the liver, 5 μM test compound and 1 mg/mL human, dog, rat or mouse liver microsomes were allowed to react with each other at 37° C. in the presence of the NADPH regenerating system for 1 hour. After 1 hour, the reaction was terminated and the supernatant obtained by centrifugation was analyzed by HPLC. With the peak value obtained as the analysis result, the residual amount (%) was calculated using the following equation through the peak value of the test compound after 1 hour of the reaction versus the peak value of the test compound at 0 min. Residual amount (%)=(peak value of test compound after 1 hour of reaction/peak value of test compound at 0 min)×100

[4] = Metabolic stability in mouse liver microsomes; format: in vitro ADME; details: 5 μM compound, 1 mg/mL mouse liver microsomes, 37° C., NADPH regenerating system
Description: as §1

[5] = target: EZH2 (Homo sapiens, UniProt Q15910); assay: Inhibitory activity against EZH2 methyltransferase (radiometric scintillation proximity assay); details: Enzyme inhibitory activity (IC50, nM) EZH2, 2.3 nmol/L enzyme, 90 minutes, room temperature;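 also: Read-out is substrate peptide methylation, captured on streptavidin-coated SPA beads and counted by scintillation, with the reaction run in Tris-HCl buffer at pH 8.0 containing 1% DMSO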
Sequence of EZH2 (Q15910 whole entry): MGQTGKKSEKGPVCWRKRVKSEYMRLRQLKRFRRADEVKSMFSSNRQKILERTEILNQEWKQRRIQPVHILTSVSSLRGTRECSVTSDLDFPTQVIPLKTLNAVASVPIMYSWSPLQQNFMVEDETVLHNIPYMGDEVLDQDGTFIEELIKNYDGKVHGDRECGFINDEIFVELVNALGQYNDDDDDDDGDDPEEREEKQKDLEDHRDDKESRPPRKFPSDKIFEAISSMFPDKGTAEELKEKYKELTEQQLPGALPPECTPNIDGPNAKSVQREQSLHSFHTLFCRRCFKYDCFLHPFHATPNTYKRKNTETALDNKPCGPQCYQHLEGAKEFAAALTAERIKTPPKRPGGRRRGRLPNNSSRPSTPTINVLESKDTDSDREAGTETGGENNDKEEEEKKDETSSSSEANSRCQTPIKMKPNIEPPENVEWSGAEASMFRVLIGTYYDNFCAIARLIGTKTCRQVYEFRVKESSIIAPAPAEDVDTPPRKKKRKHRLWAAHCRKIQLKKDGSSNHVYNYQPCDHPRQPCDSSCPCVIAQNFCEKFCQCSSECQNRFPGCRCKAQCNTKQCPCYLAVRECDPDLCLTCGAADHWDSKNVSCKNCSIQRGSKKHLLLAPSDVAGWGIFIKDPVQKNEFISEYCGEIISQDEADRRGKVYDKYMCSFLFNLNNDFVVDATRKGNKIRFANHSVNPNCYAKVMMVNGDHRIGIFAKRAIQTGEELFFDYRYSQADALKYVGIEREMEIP
Sequence of EZH2 (O75530 whole entry partner): as the sequence (O75530 whole entry partner) above
Sequence of EZH2 (Q15022 whole entry partner): as the sequence (Q15022 whole entry partner) above
Sequence of EZH2 (Q09028 whole entry partner): as the sequence (Q09028 whole entry partner) above
Sequence of EZH2 (Q6ZN18 whole entry partner): as the sequence (Q6ZN18 whole entry partner) above

[6] = Homo sapiens, KARPAS-422, 168 h

Row | Structure (SMILES) | IC50 [1] | GI50 [2] | Residual amount (%) of test compound after 1 hour of reaction, Human [3] | Residual amount (%) of test compound after 1 hour of reaction, Mouse [4] | IC50 [5] | GI50 [2, 6]
1 | Cc1cc(C)c(CN2CCc3c(C)c4c(c(Cl)c3C2=O)OC(C)([C@H]2CC[C@H](N(C)C)CC2)O4)c(=O)[nH]1 (single isomer, unassigned) [Compound 5, 4-chloro-6-((4,6-dimethyl-2-oxo-1,2-dihydropyridin-3-yl)methyl)-2-(trans-4-(dimethylamino)cyclohexyl)-2,9-dimethyl-7,8-dihydro-[1,3]dioxolo[4,5-g]isoquinolin-5(6H)-one] | 16 nM | 2.4 nM | 89% | 78% | 1.3 nM | –
2 | CCN(CC)[C@H]1CC[C@H](C2(C)Oc3c(C)c4c(c(Cl)c3O2)CCN(Cc2c(C)cc(C)[nH]c2=O)C4=O)CC1 (stereo partly drawn) [Compound 16, 9-chloro-2-(trans-4-(diethylamino)cyclohexyl)-6-((4,6-dimethyl-2-oxo-1,2-dihydropyridin-3-yl)methyl)-2,4-dimethyl-7,8-dihydro-[1,3]dioxolo[4,5-g]isoquinolin-5(6H)-one] | 89 nM | – | – | – | 11 nM | 68 nM
3 | Cc1cc(C)c(CN2CCc3c(Cl)c4c(c(C)c3C2=O)OC(C)(C[C@H]2CC[C@H](N)CC2)O4)c(=O)[nH]1 (stereo partly shown) [Compound 20] | 48 nM | – | – | – | 3.7 nM | 18 nM
4 | C#Cc1c2c(c(C)c3c1OC(C)([C@H]1CC[C@H](N(C)C)CC1)O3)C(=O)N(Cc1c(C)cc(C)[nH]c1=O)CC2 (stereo partly drawn) [Compound 53, 6-((4,6-dimethyl-2-oxo-1,2-dihydropyridin-3-yl)methyl)-2-(trans-4-(dimethylamino)cyclohexyl)-9-ethynyl-2,4-dimethyl-7,8-dihydro-[1,3]dioxolo[4,5-g]isoquinolin-5(6H)-one] | 27 to 139 nM | – | 67% | 85% | 4.5 to 9.1 nM | 5.1 to 14 nM
5 | Cc1cc(C)c(CN2CCc3c(C#N)c4c(c(C)c3C2=O)OC(C)([C@H]2CC[C@H](N(C)C)CC2)O4)c(=O)[nH]1 (stereo partly drawn) [Compound 69, 6-((4,6-dimethyl-2-oxo-1,2-dihydropyridin-3-yl)methyl)-2-(trans-4-(dimethylamino)cyclohexyl)-2,4-dimethyl-5-oxo-5,6,7,8-tetrahydro-[1,3]dioxolo[4,5-g]isoquinolin-9-carbonitrile] | 65 nM | – | – | – | 2.7 nM | 10 nM
6 | Cc1cc(C)c(CN2CCc3c(C)c4c(c(C)c3C2=O)OC(C)([C@H]2CC[C@H](N(C)C)CC2)O4)c(=O)[nH]1 (single isomer, unassigned) [Compound 41, 6-((4,6-dimethyl-2-oxo-1,2-dihydropyridin-3-yl)methyl)-2-(trans-4-(dimethylamino)cyclohexyl)-2,4,9-trimethyl-7,8-dihydro-[1,3]dioxolo[4,5-g]isoquinolin-5(6H)-one] | > 1000 nM | 69 nM | 53% | 63% | 69 nM | –
7 | CCCc1cc(C)[nH]c(=O)c1CN1CCc2c(Cl)c3c(c(C)c2C1=O)OC(C)([C@H]1CC[C@H](N(C)C)CC1)O3 (stereo partly drawn) [Compound 14, 9-chloro-2-(trans-4-(dimethylamino)cyclohexyl)-2,4-dimethyl-6-((6-methyl-2-oxo-4-propyl-1,2-dihydropyridin-3-yl)methyl)-7,8-dihydro-[1,3]dioxolo[4,5-g]isoquinolin-5(6H)-one] | 27 nM | – | – | – | 3.2 nM | 50 nM
8 | CC[C@@H](O)C(=O)N1CCC(C2(C)Oc3c(C)c4c(c(Cl)c3O2)CCN(Cc2c(C)cc(C)[nH]c2=O)C4=O)CC1 (stereo partly drawn) [Compound 30, 9-chloro-6-((4,6-dimethyl-2-oxo-1,2-dihydropyridin-3-yl)methyl)-2-(1-((R)-2-hydroxybutanoyl)piperidin-4-yl)-2,4-dimethyl-7,8-dihydro-[1,3]dioxolo[4,5-g]isoquinolin-5(6H)-one] | 190 nM | – | – | – | 3.4 nM | 307 nM
9 | C=Cc1c2c(c(C)c3c1OC(C)([C@H]1CC[C@H](N(C)C)CC1)O3)C(=O)N(Cc1c(C)cc(C)[nH]c1=O)CC2 (stereo partly drawn) [Compound 52, 6-((4,6-dimethyl-2-oxo-1,2-dihydropyridin-3-yl)methyl)-2-(trans-4-(dimethylamino)cyclohexyl)-2,4-dimethyl-9-vinyl-7,8-dihydro-[1,3]dioxolo[4,5-g]isoquinolin-5(6H)-one] | 32 to 55 nM | – | 62% | 61% | 3.4 to 3.7 nM | 4.4 to 9.7 nM
10 | Cc1cc(C)c(CN2CCc3c(Cl)c4c(c(Cl)c3C2=O)OC(C)([C@H]2CC[C@H](N(C)C)CC2)O4)c(=O)[nH]1 (stereo partly drawn) [Compound 7, 4,9-dichloro-6-((4,6-dimethyl-2-oxo-1,2-dihydropyridin-3-yl)methyl)-2-(trans-4-(dimethylamino)cyclohexyl)-2-methyl-7,8-dihydro-[1,3]dioxolo[4,5-g]isoquinolin-5(6H)-one] | 54 nM | – | – | – | 3.8 nM | 4.8 nM

Further lines, results first:

Row | IC50 [1] | GI50 [2] | Residual amount (%) of test compound after 1 hour of reaction, Human [3] | Residual amount (%) of test compound after 1 hour of reaction, Mouse [4] | IC50 [5] | GI50 [2, 6] | Structure (SMILES)
11 | > 1000 nM | ≥ 563 nM | 37% | 70% | 116 to 473 nM | – | Cc1cc(C)c(CN2CCc3c(Cl)c4c(c(C)c3C2=O)OC(C)([C@H]2CC[C@H](N(C)C)CC2)O4)c(=O)[nH]1 (single isomer, unassigned) [Compound 11, 9-chloro-6-((4,6-dimethyl-2-oxo-1,2-dihydropyridin-3-yl)methyl)-2-(trans-4-(dimethylamino)cyclohexyl)-2,4-dimethyl-7,8-dihydro-[1,3]dioxolo[4,5-g]isoquinolin-5(6H)-one]
12 | 65 nM | – | – | – | 3.6 nM | 18 nM | CCN[C@H]1CC[C@H](C2(C)Oc3c(C)c4c(c(Cl)c3O2)CCN(Cc2c(C)cc(C)[nH]c2=O)C4=O)CC1 (stereo partly drawn) [Compound 15, 9-chloro-6-((4,6-dimethyl-2-oxo-1,2-dihydropyridin-3-yl)methyl)-2-(trans-4-(ethylamino)cyclohexyl)-2,4-dimethyl-7,8-dihydro-[1,3]dioxolo[4,5-g]isoquinolin-5(6H)-one]
13 | 51 nM | – | – | – | 3.8 nM | 231 nM | Cc1cc(C)c(CN2CCc3c(Cl)c4c(c(C)c3C2=O)OC(C)(C2CCN(CC(F)(F)F)CC2)O4)c(=O)[nH]1 (stereo not shown) [Compound 31, 9-chloro-6-((4,6-dimethyl-2-oxo-1,2-dihydropyridin-3-yl)methyl)-2,4-dimethyl-2-(1-(2,2,2-trifluoroethyl)piperidin-4-yl)-7,8-dihydro-[1,3]dioxolo[4,5-g]isoquinolin-5(6H)-one]
14 | 47 nM | – | – | – | 4.3 nM | 16 nM | Cc1cc(C)c(CN2CCc3c(Cl)c4c(c(C)c3C2=O)OC(C)([C@H]2CC[C@H](N3CCCC3)CC2)O4)c(=O)[nH]1 (stereo partly drawn) [Compound 18, 9-chloro-6-((4,6-dimethyl-2-oxo-1,2-dihydropyridin-3-yl)methyl)-2,4-dimethyl-2-(trans-4-(pyrrolidin-1-yl)cyclohexyl)-7,8-dihydro-[1,3]dioxolo[4,5-g]isoquinolin-5(6H)-one]
15 | 74 nM | – | – | – | 5.6 nM | 52 nM | Cc1cc(C)c(CN2CCc3c(Cl)c4c(c(C)c3C2=O)OC(C)([C@H]2CC[C@H](N3CCCCC3)CC2)O4)c(=O)[nH]1 (stereo partly drawn) [Compound 17, 9-chloro-6-((4,6-dimethyl-2-oxo-1,2-dihydropyridin-3-yl)methyl)-2,4-dimethyl-2-(trans-4-(piperidin-1-yl)cyclohexyl)-7,8-dihydro-[1,3]dioxolo[4,5-g]isoquinolin-5(6H)-one]
16 | 180 nM | – | – | – | 16 nM | > 1000 nM | Cc1cc(C)c(CN2CCc3c(Cl)c4c(c(C)c3C2=O)OC(C)(C2CCCCC2)O4)c(=O)[nH]1 (stereo not shown) [Compound 22, 9-chloro-2-cyclohexyl-6-((4,6-dimethyl-2-oxo-1,2-dihydropyridin-3-yl)methyl)-2,4-dimethyl-7,8-dihydro-[1,3]dioxolo[4,5-g]isoquinolin-5(6H)-one]
